# According to patent US20250057837A1, “Methods for Treating HCV” (priority 2015, published 2025):
# Assays:
# [1] = Phase 1 single and multiple ascending dose and food effect study of Compound 2 in healthy subjects
# Method: This was a blinded, randomized, placebo-controlled Phase 1 study. […] Safety and tolerability were assessed throughout the study.
# [2] = assay type: in vivo, human; settings: for impact of HCV genotype and RBV coadministration on exposures: GT1-, GT2- or GT3-infected subjects
# Excerpt: Blood samples for pharmacokinetic analysis were collected throughout the study treatment period.
# [3] = Phase 1 drug-drug interaction with tacrolimus in healthy subjects; settings: coadministered with tacrolimus 1 mg
# [4] = Phase 1 drug-drug interaction with cyclosporine in healthy subjects; settings: coadministered with cyclosporine 100 mg
# [5] = tested on: GT3a NS3 protease replicon A156G variant; assay: Resistant colony selection, replicon containing GT3a NS3 protease (A156G); assay type: cell-based, hepatitis C virus; settings: A156G alone
# [6] = tested on: GT1b replicon NS3 A156V variant; assay: Resistant colony selection, GT1b subgenomic replicon cells; assay type: cell-based, hepatitis C virus; settings: A156V in GT1b
# [7] = tested on: resistance-associated variants in GT 1a (H77) replicon; assay: Activity against resistance-associated variants in GT 1a replicon; assay type: cell-based, hepatitis C virus
# [8] = tested on: GT1a replicon NS3 A156T variant; assay: Resistant colony selection, GT1a subgenomic replicon cells; assay type: cell-based, hepatitis C virus; settings: A156T in GT1a
# [9] = tested on: GT3a NS3 protease replicon Q168R co-selected with Y56H; assay: Resistant colony selection, replicon containing GT3a NS3 protease (Q168R+Y56H); assay type: cell-based, hepatitis C virus
# [10] = tested on: resistance-associated variants in GT 1b (Con-1) replicon; assay: Activity against resistance-associated variants in GT 1b replicon; assay type: cell-based, hepatitis C virus
# [11] = human, in vivo
Structure (SMILES),"severity of adverse events ([1]; SAD 1.5-600 mg, MAD 30-600 mg QD 10 days)",maximum tolerated dose ([1]; SAD and MAD portions),impact of HCV genotype and RBV coadministration on exposures [2],"steady-state Cmax, AUC24, and C24 in plasma, change [3] [%]","steady-state AUC24 in plasma, increase [4] [%]","steady-state C24 in plasma, increase [4] [%]","steady-state Cmax in plasma, increase [4] [%]",loss in susceptibility conferred by variant [5] [fold],impact of Compound 2 on Compound 1 exposures ([2]; coadministration),reduced susceptibility conferred by variant [6] [fold],"inhibitory activity against NS3 resistance-associated variants ([7]; V36M, R155K, D168A and D168V in GT 1a (H77))",activity against variants at NS3 amino acid positions 155 and 168 ([7]; common GT1a variants conferring resistance to other HCV protease inhibitors),"activity against NS5A inhibitor and NS5B inhibitor resistance-associated variants ([7]; e.g. M28T, M28V, Q30D, Q30R, Y93C, Y93H, Y93N, L31V+Y93H, C316Y, M414T, Y448C, Y448H, S556G and S559G in GT1a)",reduced susceptibility conferred by variant [8] [fold],loss in susceptibility conferred by variant [9] [fold],"inhibitory activity against NS3 resistance-associated variants ([10]; T54A, R155K, D168V and V170A in GT 1b (Con-1))",activity against variants at NS3 amino acid positions 155 and 168 ([10]; common GT1b variants conferring resistance to other HCV protease inhibitors),"activity against NS5A inhibitor and NS5B inhibitor resistance-associated variants ([10]; e.g. L28T, Y93H, S282T, C316Y, Y448H and S556G in GT 1b)","dose-normalized Cmax and AUCt, change [11] [%]"
COC(=O)N[C@H](C(=O)N1CCC[C@H]1c1nc2cc([C@H]3CC[C@H](c4cc5nc([C@@H]6CCCN6C(=O)[C@@H](NC(=O)OC)[C@@H](C)OC)[nH]c5cc4F)N3c3cc(F)c(N4CCC(c5ccc(F)cc5)CC4)c(F)c3)c(F)cc2[nH]1)[C@@H](C)OC [Compound 2],mild,not reached,no impact,≤ 2,22,26,11,,,,,,,,,,,,
CC(C)(C)[C@@H]1NC(=O)O[C@@H]2CCC[C@H]2OC/C=C/C(F)(F)c2nc3ccccc3nc2O[C@@H]2C[C@@H](C(=O)N[C@]3(C(=O)NS(=O)(=O)C4(C)CC4)C[C@H]3C(F)F)N(C2)C1=O [Compound 1],,,no impact,,,,,1500,minimal impact,1800,nearly equivalent to that against wild-type HCV replicon,retained its activity,potent activity,1400,1100,nearly equivalent to that against wild-type HCV replicon,retained its activity,potent activity,
C=CCN1CC[C@]23c4c5ccc(O)c4O[C@H]2C(=O)CC[C@@]3(O)[C@H]1C5 [naloxone],,,,,,,,,,,,,,,,,,,≤ 12
